{"source": "paper PMC10988555", "about": "“Exploiting Co(III)-Cyclopentadienyl Complexes To Develop Anticancer Agents” (Inorganic Chemistry, 2024)", "key": {"A2780 cell line": {"system": "A2780 cell line", "experiment": "Internalization of cobalt by ICP-AES", "type": "cell-based, human", "settings": "A2780, 10× IC50, ICP-AES, cellular fraction", "method": "Internalization of the cobalt complexes was evaluated by ICP-AES in the A2780 cell line. For this, the A2780 cell line was seeded in 25 cm^2 T-flasks at a density of 5 × 10^5 cells/T-flask and incubated for 24 h at 37 °C with 5% (v/v) CO2. […] Cells were then incubated for 3, 6, and 12 h at the same conditions as before and for 12 h at 4 °C. The culture media was recovered to a new tube (supernatant fraction) and cells were detached from the T-flask with 2 mL of TripLE Express (TE) (Gibco by life technologies) and centrifuged at 750 × g for 5 min. Then, fresh aqua regia was added to the supernatant tube and to the cellular fractions and incubated overnight at room temperature (RT) in the hood fume. Samples were delivered to Laboratório de Análises/LAQV and the levels of cobalt were evaluated by ICP-AES."}, "Calf Thymus DNA (CT-DNA)": {"system": "Calf Thymus DNA (CT-DNA)", "experiment": "Calf thymus DNA binding assays (UV-vis, melting profile)", "settings": "UV spectroscopy, 25 μM complex", "method": "Calf Thymus DNA (CT-DNA) binding assay was performed through the UV–vis spectra from 230 to 700 nm on the spectrophotometer Evolution 300 UV–vis (Thermo Fischer Scientific, Waltham, MA, USA). It was used a filtered buffer (5 mM Tris–HCl, 50 mM NaCl, pH 7.02) for the dilution of 0–50 μM of CT-DNA and 25 μM of the complexes 2–4. Control solutions of CT-DNA, CT-DNA + DMSO, and DMSO were also prepared. All solutions were incubated for 24 h at 37 °C and then analyzed. CT-DNA concentration in […] had been determined at 260 nm in a NanoDrop2000 spectrophotometer (Thermo Scientific), using an extinction coefficient of 6600 M^–1 cm^–1. The dilution effect because of the addition of the DNA solution was corrected and the affinity constants were calculated according to eq 2: [drawing 2] 2 where [DNA] is the concentration of CT-DNA (per nucleotide phosphate), εa = Abs/[complex], εf is the extinction coefficient for the free complex, and εb is the extinction coefficient for [Co(η^5-C5H5)(PPh3)(NN)][(CF3SO3)2] when fully bound to DNA. DNA concentration (expressed as the molarity of phosphate groups) was determined with a NanoDrop 2000 spectrophotometer assuming ε260 = 6600 M^–1 cm^–1. A melting profile of 10 μM CT-DNA and 10 μM CT-DNA with 10 μM of the complexes 2–4, was also performed. Evagreen dye was added to all samples after a 1h 30 min incubation of CT-DNA with the complexes at 37 °C. Melting curves were analyzed in a Corbet RotorGene 6000 (Biorad, Spain) by a first incubation step at 37 °C for 5 min followed by a ramp from 37 to 95 °C with 90 s hold in the first step and 5 s hold in the next steps with green acquisition."}, "[1]": {"system": "HCT116 (human colorectal carcinoma) cell line", "experiment": "Antiproliferative activity, MTS assay, HCT116", "type": "cell-based", "settings": "for IC50: 48 h exposure, MTS assay; for Selectivity index (SI), HCT116: IC50 fibroblasts/IC50 HCT116, values with * calculated taking fibroblast IC50 as 100 μM (minimal value)", "method": "Human colorectal carcinoma cell line (HCT116), human breast cancer cell lines (MDA-MB-231 and MCF-7), and normal human primary dermal fibroblasts neonatal (PCS-201-010) cell line were grown in DMEM (Dulbecco’s modified Eagle’s medium) (Invitrogen Corp., Grand Island, NY, USA) supplemented with 10% (v/v) fetal bovine serum and 1% (v/v) antibiotic/antimycotic solution (Invitrogen Corp.). The human ovarian carcinoma (A2780) cell line was cultivated using RPMI (Roswell Park Memorial Institute) medium supplemented as in DMEM medium. The supplemented medium is named a complete medium. Cells were grown in an incubator with a humidified atmosphere at 5% (v/v) CO2 and 37 °C. All cell lines were purchased from ATCC (ATCC, American Type Culture Collection).\nThe evaluation of the cytotoxic potential of complexes 1–4 was obtained through in vitro measurements of the antiproliferative activity of these complexes. Cells were plated in 96-well plates at 7.5 × 10^4 cells/mL and incubated at 37 °C with 5% (v/v) CO2. After 24 h, the culture medium was replaced with fresh medium (100 μL) containing 0.1–50 μM of the different complexes and incubated for 48 h in tumor cell lines or containing 0.1–100 μM of the different complexes and incubated for 48 h in fibroblasts. […] The fibroblast cell line was used as a control of the cytotoxicity of the complexes for healthy cells. Cell viability was evaluated using Cell Titer 96 Aqueous Non-Radioactive Cell Proliferation Assay (Promega, Madison, WI, USA) using 3-(4,5-dimethylthiazol-2-yl)-5-(3-carboxymethoxyphenyl)-2-(4-sulfophenyl)-2H-tetrazolium inner salt (MTS), as described previously.[60] In metabolically active cells, enzymes present in the mitochondria catalyze a reaction in which NADPH/NADH is produced. These enzymes reduce the MTS reagent into a brownish product, Formazan, which can be quantified by measuring the absorbance at 490 nm. The quantity of formazan produced is directly proportional to the number of viable cells in the culture. This quantification was executed with a Biorad microplate reader Model 680 (Bio-Rad, Hercules, CA, USA). Half maximal inhibitory concentration (IC50) was calculated using GraphPad Prism 6 (GraphPadSoftware). We have calculated the ratio between the IC50 of fibroblasts and the IC50 of HCT116, A2780, MDA-MB-231, or MCF-7 cell lines for complexes 1–4 that was named herein as the Selectivity index (SI). To ensure the solubility of the complexes in all biological assays, complex solutions were freshly prepared and well solubilized before addition to the cells."}, "A2780 cells": {"system": "A2780 cells", "experiment": "Cellular viability after 12 h at 37 °C versus 4 °C", "type": "cell-based, human", "settings": "A2780, 12 h, 20× IC50"}, "Fibroblasts": {"system": "Fibroblasts", "experiment": "Cell migration (scratch) assay", "type": "cell-based, human", "settings": "IC50 concentrations, 24 h, normalized against DMSO (100%)", "method": "Fibroblasts were seeded in 24-well plates at a density of 4 × 10^5 cells/mL and grown in the same conditions as described previously until a confluent monolayer was obtained. […] Images of the Fibroblasts were captured right after the exposure (0 h) to the complexes and after 24 h of incubation at 37 °C and 5% (v/v) CO2 in a humidified atmosphere, using CytoSMART Lux2 Live Cell Imager (Axion biosystems, USA) and Ti–U Eclipse Inverted microscope (Nikon Instruments, Japan). Images were analyzed with the ImageJ MRO Wound Healing Tool or with the scratch assay measurement of the CytoSMART cloud portal for the Lux system."}, "[2]": {"system": "Caspase 8 in A2780 cell line", "experiment": "Caspase 8 activity assay", "type": "cell-based, human", "settings": "A2780, IC50, 48 h, normalized to DMSO", "method": "The A2780 cell line was seeded in 25 cm^2 T-flasks at a density of 2 × 10^6 cells/T-flasks. […] After that, cells were detached using cold PBS 1× and a cell scraper and centrifuged at 500 × g for 5 min. Then, we followed the instructions provided by the manufacturer of the Caspase-8 assay kit (Abcam). The data was obtained by measuring the absorbance of each sample at 400 nm and each value was normalized to the value of the DMSO sample."}}, "data": [{"compound": "O=S(=O)([O-])C(F)(F)F.O=S(=O)([O-])C(F)(F)F.[Co+3].c1cc[cH-]c1.c1ccc(P(c2ccccc2)c2ccccc2)cc1.c1cnc2c(c1)ccc1cccnc12", "note": "[Complex 3, [Co(η^5-C5H5)(PPh3)(phen)][(CF3SO3)2]]", "values": [{"measurement": "Percentage of internalization, 3 h at 37 °C", "setting": "A2780 cell line", "result": "49.7% ± 3.5"}, {"measurement": "Percentage of internalization, 6 h at 37 °C", "setting": "A2780 cell line", "result": "31.9% ± 10.2"}, {"measurement": "Percentage of internalization, 12 h at 37 °C", "setting": "A2780 cell line", "result": "76.9% ± 15.9"}, {"measurement": "effect on lowest-energy absorption band with increasing CT-DNA", "setting": "Calf Thymus DNA (CT-DNA)", "result": "a hypochromic effect"}, {"measurement": "IC50", "setting": "[1]", "result": "13.4 ± 0.1", "unit": "µM"}, {"measurement": "Selectivity index (SI), HCT116", "setting": "[1]", "result": "7.5*"}, {"measurement": "cytotoxic activity at 4 °C compared to 37 °C", "setting": "A2780 cells", "result": "significantly lose some of their cytotoxic activity at 4 °C"}, {"measurement": "cellular remission", "setting": "Fibroblasts", "result": 76.9, "unit": "%"}]}, {"compound": "Cc1ccnc(-c2cc(C)ccn2)c1.O=S(=O)([O-])C(F)(F)F.O=S(=O)([O-])C(F)(F)F.[Co+3].c1cc[cH-]c1.c1ccc(P(c2ccccc2)c2ccccc2)cc1", "note": "[Complex 2, [Co(η^5-C5H5)(PPh3)(Me2bipy)][(CF3SO3)2]]", "values": [{"measurement": "Percentage of internalization, 3 h at 37 °C", "setting": "A2780 cell line", "result": "40.6% ± 2.0"}, {"measurement": "Percentage of internalization, 6 h at 37 °C", "setting": "A2780 cell line", "result": "50.7% ± 3.3"}, {"measurement": "Percentage of internalization, 12 h at 37 °C", "setting": "A2780 cell line", "result": "92.6% ± 6.5"}, {"measurement": "effect on lowest-energy absorption band with increasing CT-DNA", "setting": "Calf Thymus DNA (CT-DNA)", "result": "a small hyperchromic effect"}, {"measurement": "IC50", "setting": "[1]", "result": "15.3 ± 0.2", "unit": "µM"}, {"measurement": "Selectivity index (SI), HCT116", "setting": "[1]", "result": "6.5*"}, {"measurement": "caspase 8 activity relative to control", "setting": "[2]", "result": 2, "unit": "×"}, {"measurement": "cytotoxic activity at 4 °C compared to 37 °C", "setting": "A2780 cells", "result": "significantly lose some of their cytotoxic activity at 4 °C"}, {"measurement": "cellular remission", "setting": "Fibroblasts", "result": 80.2, "unit": "%"}]}, {"compound": "Nc1cc2cccnc2c2ncccc12.O=S(=O)([O-])C(F)(F)F.O=S(=O)([O-])C(F)(F)F.[Co+3].c1cc[cH-]c1.c1ccc(P(c2ccccc2)c2ccccc2)cc1", "note": "[Complex 4, [CoCp(PPh3)(NH2phen)][(CF3SO3)2]]", "values": [{"measurement": "Percentage of internalization, 3 h at 37 °C", "setting": "A2780 cell line", "result": "33.7% ± 2.7"}, {"measurement": "Percentage of internalization, 6 h at 37 °C", "setting": "A2780 cell line", "result": "43.6% ± 5.8"}, {"measurement": "Percentage of internalization, 12 h at 37 °C", "setting": "A2780 cell line", "result": "89.3% ± 10.6"}, {"measurement": "effect on lowest-energy absorption band with increasing CT-DNA", "setting": "Calf Thymus DNA (CT-DNA)", "result": "a hypochromic effect"}, {"measurement": "IC50", "setting": "[1]", "result": "14.1 ± 0.2", "unit": "µM"}, {"measurement": "Selectivity index (SI), HCT116", "setting": "[1]", "result": "7.1*"}, {"measurement": "caspase 8 activity relative to control", "setting": "[2]", "result": 1.6, "unit": "×"}, {"measurement": "cellular remission", "setting": "Fibroblasts", "result": 78.1, "unit": "%"}]}]}
